Experiment: Inhibition of influenza A virus neuraminidase using 2-(4-methylumbelliferyl)-a-D-acetylneuraminic acid as substrate incubated for 30 mins by fluorescence based analysis

C=C1C[C@@H]2[C@@]3(C)CCC(=O)C(C)(C)[C@@H]3C(=O)C[C@@]2(C)[C@@]2(C(=O)OC)C(=O)[C@](C)(O)C(=O)[C@@]12C
IC50: 18 nM
